Tests used:
Assay type in all cases: cell-based
[1] = biological target: T1, plant protox mutants (MzC-1Val, maize protox-1) in SASX38 (Arabidopsis thaliana, UniProt P55826, A220V/A252T/A259N/A262P/A292S/A82G/A83V/D204A/D323E/D487E/D93A/DEL80-81/E103P/E263P/E288N/E311D/E351S/E499D/F107Y/F178L/F250I/F483L/G171P/G277A/G306S/G313K/G344N/G441S/H340Y/I100T/I174L/I370V/I421V/I485L/I71T/I87L/INS101VE/K237R/K257S/K359R/K388Q/K457N/K465V/K78R/K92R/L137F/L159P/L310S/L325V/L345I/L360F/L436V/L86V/M122V/N105E/N149E/N241T/N258K/N316V/N355D/N459T/N85D/P266A/P418D/P458S/P84G/Q240E/Q272K/R284A/R293S/S186P/S291T/S305T/S312D/S330A/S352D/S369T/S430A/S439T/S460A/S491A/S492A/S495R/S496G/T141N/T160A/T318E/T379K/T397S/T461V/T488A/T494D/T56K/V126A/V334I/V337I/V95P); assay: Bacterial cross-tolerance testing of resistant mutant plasmids in SASX38, maize protox-1 mutant; parameters: key: + = 10× or more tolerant than WT; ++ = 100× or more tolerant than WT; − = no cross tolerance; settings: mutant MzC-1Val vs WT plasmid in SASX38
T1 construct: expressed in transfected cells; host or cells: E. coli SASX38 (hemG mutant)
T1 sequence (P55826 other isoform, or with tags, fused parts or gaps with the stated changes): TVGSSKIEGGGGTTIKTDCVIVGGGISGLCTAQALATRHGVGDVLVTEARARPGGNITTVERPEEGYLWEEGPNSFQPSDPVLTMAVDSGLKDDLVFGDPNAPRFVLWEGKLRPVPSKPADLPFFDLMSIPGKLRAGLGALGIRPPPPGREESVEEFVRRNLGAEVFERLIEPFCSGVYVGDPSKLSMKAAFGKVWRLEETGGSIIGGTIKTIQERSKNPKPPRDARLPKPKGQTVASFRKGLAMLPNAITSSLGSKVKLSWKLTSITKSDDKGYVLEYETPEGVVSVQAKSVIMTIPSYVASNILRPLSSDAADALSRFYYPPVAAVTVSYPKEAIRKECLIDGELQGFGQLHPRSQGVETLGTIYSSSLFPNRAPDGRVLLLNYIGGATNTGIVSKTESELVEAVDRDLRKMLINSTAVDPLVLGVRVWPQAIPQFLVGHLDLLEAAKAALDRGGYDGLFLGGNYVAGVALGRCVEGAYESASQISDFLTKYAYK
Method: (§1) Resistant mutant plasmids, originally identified based on resistance against a single protox inhibitory herbicide, were tested against a spectrum of other protox inhibiting compounds. For this test, the SASX38 strain containing the wild-type plasmid is plated on a range of concentrations of each compound to determine the lethal concentration for each one. Resistant mutant plasmids in SASX38 are plated and scored for the ability to survive on a concentration of each compound at least 10 fold higher than the concentration that is lethal to the SASX38 strain containing the wild-type plasmid.

[2] = tested on: plant protox mutants (Arabidopsis protox-1) in SASX38; assay: Bacterial cross-tolerance testing of resistant mutant plasmids in SASX38, Arabidopsis protox-1 mutants; parameters: key to Cross tolerance, AraC-1Val / Cross tolerance, AraC-2Cys / Cross tolerance, AraC-1Thr / Cross tolerance, AraC-3Thr / Cross tolerance, AraC-2Ile / Cross tolerance, AraC-2Cys + AraC425Ser: + = 10× or more tolerant than WT; ++ = 100× or more tolerant than WT; − = no cross tolerance; settings: mutant AraC-3Thr vs WT plasmid in SASX38
Method: as §1

[3] = biological target: T2, plant protox mutants (Arabidopsis protox-1) in SASX38 (Arabidopsis thaliana, UniProt P55826, N425S/T56K/Y426L); assay: as above; parameters: key to Cross tolerance, AraC-1Val / Cross tolerance, AraC-2Cys / Cross tolerance, AraC-1Thr / Cross tolerance, AraC-3Thr / Cross tolerance, AraC-2Ile / Cross tolerance, AraC-2Cys + AraC425Ser: + = 10× or more tolerant than WT; ++ = 100× or more tolerant than WT; − = no cross tolerance; settings: mutant AraC-2Leu + AraC425Ser
T2 construct: contains only 17 amino acids of the putative chloroplast transit peptide; expressed in transfected cells; host or cells: E. coli SASX38 (hemG mutant)
T2 sequence (P55826 41-537 T56K/N425S/Y426L): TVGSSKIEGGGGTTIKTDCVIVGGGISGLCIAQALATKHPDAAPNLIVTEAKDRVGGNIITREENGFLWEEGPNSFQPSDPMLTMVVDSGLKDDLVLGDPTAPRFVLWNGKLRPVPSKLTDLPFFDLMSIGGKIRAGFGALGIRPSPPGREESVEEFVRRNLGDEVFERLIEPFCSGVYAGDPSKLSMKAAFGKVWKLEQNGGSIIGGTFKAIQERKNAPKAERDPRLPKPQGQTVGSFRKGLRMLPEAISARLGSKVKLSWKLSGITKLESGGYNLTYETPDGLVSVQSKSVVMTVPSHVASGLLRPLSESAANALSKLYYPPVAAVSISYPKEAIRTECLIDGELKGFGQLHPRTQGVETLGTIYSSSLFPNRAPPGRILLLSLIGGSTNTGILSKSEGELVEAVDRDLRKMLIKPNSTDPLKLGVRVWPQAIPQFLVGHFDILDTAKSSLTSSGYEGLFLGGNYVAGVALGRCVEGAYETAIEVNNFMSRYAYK
Method: as §1

[4] = biological target: T3, plant protox mutants (Arabidopsis protox-1) in SASX38 (Arabidopsis thaliana, UniProt P55826, A220L/T56K/Y426M); assay: as above; parameters: key to Cross tolerance, AraC-1Val / Cross tolerance, AraC-2Cys / Cross tolerance, AraC-1Thr / Cross tolerance, AraC-3Thr / Cross tolerance, AraC-2Ile / Cross tolerance, AraC-2Cys + AraC425Ser: + = 10× or more tolerant than WT; ++ = 100× or more tolerant than WT; − = no cross tolerance; settings: mutant AraC-1Leu + AraC-2Met
T3 construct: contains only 17 amino acids of the putative chloroplast transit peptide; expressed in transfected cells; host or cells: E. coli SASX38 (hemG mutant)
T3 sequence (P55826 41-537 T56K/A220L/Y426M): as the sequence (P55826 41-537 T56K/N425S/Y426L) above, with A180L, S385N, L386M counted along it
Method: as §1

[5] = biological target: T4, plant protox mutants (Arabidopsis protox-1) in SASX38 (Arabidopsis thaliana, UniProt P55826, N425S/T56K/Y426M); assay: as above; parameters: key to Cross tolerance, AraC-1Val / Cross tolerance, AraC-2Cys / Cross tolerance, AraC-1Thr / Cross tolerance, AraC-3Thr / Cross tolerance, AraC-2Ile / Cross tolerance, AraC-2Cys + AraC425Ser: + = 10× or more tolerant than WT; ++ = 100× or more tolerant than WT; − = no cross tolerance; settings: mutant AraC-2Met + AraC425Ser
T4 construct: contains only 17 amino acids of the putative chloroplast transit peptide; expressed in transfected cells; host or cells: E. coli SASX38 (hemG mutant)
T4 sequence (P55826 41-537 T56K/N425S/Y426M): as the sequence (P55826 41-537 T56K/N425S/Y426L) above, with L386M counted along it
Method: as §1

[6] = biological target: T5, plant protox mutants (Arabidopsis protox-1) in SASX38 (Arabidopsis thaliana, UniProt P55826, A220T/T56K); assay: as above; parameters: key to Cross tolerance, AraC-1Val / Cross tolerance, AraC-2Cys / Cross tolerance, AraC-1Thr / Cross tolerance, AraC-3Thr / Cross tolerance, AraC-2Ile / Cross tolerance, AraC-2Cys + AraC425Ser: + = 10× or more tolerant than WT; ++ = 100× or more tolerant than WT; − = no cross tolerance; settings: mutant AraC-1Thr vs WT plasmid in SASX38
T5 construct: contains only 17 amino acids of the putative chloroplast transit peptide; expressed in transfected cells; host or cells: E. coli SASX38 (hemG mutant)
T5 sequence (P55826 41-537 T56K/A220T): as the sequence (P55826 41-537 T56K/N425S/Y426L) above, with A180T, S385N, L386Y counted along it
Method: as §1

[7] = biological target: T6, plant protox mutants (Arabidopsis protox-1) in SASX38 (Arabidopsis thaliana, UniProt P55826, N425S/T56K/Y426C); assay: as above; parameters: key to Cross tolerance, AraC-1Val / Cross tolerance, AraC-2Cys / Cross tolerance, AraC-1Thr / Cross tolerance, AraC-3Thr / Cross tolerance, AraC-2Ile / Cross tolerance, AraC-2Cys + AraC425Ser: + = 10× or more tolerant than WT; ++ = 100× or more tolerant than WT; − = no cross tolerance; settings: mutant AraC-2Cys + AraC425Ser
T6 construct: contains only 17 amino acids of the putative chloroplast transit peptide; expressed in transfected cells; host or cells: E. coli SASX38 (hemG mutant)
T6 sequence (P55826 41-537 T56K/N425S/Y426C): as the sequence (P55826 41-537 T56K/N425S/Y426L) above, with L386C counted along it
Method: as §1

[8] = biological target: T7, plant protox mutants (Arabidopsis protox-1) in SASX38 (Arabidopsis thaliana, UniProt P55826, S305L/T56K/Y426I); assay: as above; parameters: key to Cross tolerance, AraC-1Val / Cross tolerance, AraC-2Cys / Cross tolerance, AraC-1Thr / Cross tolerance, AraC-3Thr / Cross tolerance, AraC-2Ile / Cross tolerance, AraC-2Cys + AraC425Ser: + = 10× or more tolerant than WT; ++ = 100× or more tolerant than WT; − = no cross tolerance; settings: mutant AraC-2Ile + AraC305Leu
T7 construct: contains only 17 amino acids of the putative chloroplast transit peptide; expressed in transfected cells; host or cells: E. coli SASX38 (hemG mutant)
T7 sequence (P55826 41-537 T56K/S305L/Y426I): as the sequence (P55826 41-537 T56K/N425S/Y426L) above, with S265L, S385N, L386I counted along it
Method: as §1

Structure (SMILES) | Cross tolerance, MzC-1Val [1] | Cross tolerance, AraC-3Thr [2] | Cross tolerance, AraC-2Leu + AraC425Ser [3] | Cross tolerance, AraC-1Leu + AraC-2Met [4] | Cross tolerance, AraC-2Met + AraC425Ser [5] | Cross tolerance, AraC-1Thr [6] | Cross tolerance, AraC-2Cys + AraC425Ser [7] | Cross tolerance, AraC-2Ile + AraC305Leu [8]
CCOC(=O)COC(=O)c1cc(Oc2ccc(C(F)(F)F)cc2Cl)ccc1[N+](=O)[O-] [IV] | − | ++ (++ = 100× or more tolerant than WT) | + (+ = 10× or more tolerant than WT) | + (+ = 10× or more tolerant than WT) | + (+ = 10× or more tolerant than WT) | ++ (++ = 100× or more tolerant than WT) | − | + (+ = 10× or more tolerant than WT)
COC(=O)CSc1cc(N=c2sc(=O)n3n2CCCC3)c(F)cc1Cl [VIIa] | + (+ = 10× or more tolerant than WT) | − | ++ (++ = 100× or more tolerant than WT) | ++ (++ = 100× or more tolerant than WT) | ++ (++ = 100× or more tolerant than WT) | + (+ = 10× or more tolerant than WT) | ++ (++ = 100× or more tolerant than WT) | ++ (++ = 100× or more tolerant than WT)
CCCCCOC(=O)COc1cc(N2C(=O)C3=C(CCCC3)C2=O)c(F)cc1Cl [XIV] | + (+ = 10× or more tolerant than WT) | + (+ = 10× or more tolerant than WT) | ++ (++ = 100× or more tolerant than WT) | ++ (++ = 100× or more tolerant than WT) | ++ (++ = 100× or more tolerant than WT) | + (+ = 10× or more tolerant than WT) | − | ++ (++ = 100× or more tolerant than WT)
CC(C)OC(=O)c1cc(-n2c(=O)cc(C(F)(F)F)n(C)c2=O)ccc1Cl [XI] | + (+ = 10× or more tolerant than WT) | ++ (++ = 100× or more tolerant than WT) | ++ (++ = 100× or more tolerant than WT) | ++ (++ = 100× or more tolerant than WT) | ++ (++ = 100× or more tolerant than WT) | + (+ = 10× or more tolerant than WT) | ++ (++ = 100× or more tolerant than WT) | ++ (++ = 100× or more tolerant than WT)
